Assay results reported in US10919859B2, “Benzylaminopyridylcyclopropanecarboxylic acids, pharmaceutical compositions and uses thereof” (Boehringer Ingelheim International GmbH, priority 2017, dated 2021).
Converted amounts (≈) assume the structure as drawn.

Legend:
human GPR40 receptor = human GPR40 receptor (Homo sapiens (Human), UniProt O14842); test: IP1 accumulation measurements using the IPOne assay system; assay type: cell-based; conditions: 1321N1 cells stably expressing human GPR40, 1 h at 37° C.
Sequence of human GPR40 receptor (O14842 whole entry): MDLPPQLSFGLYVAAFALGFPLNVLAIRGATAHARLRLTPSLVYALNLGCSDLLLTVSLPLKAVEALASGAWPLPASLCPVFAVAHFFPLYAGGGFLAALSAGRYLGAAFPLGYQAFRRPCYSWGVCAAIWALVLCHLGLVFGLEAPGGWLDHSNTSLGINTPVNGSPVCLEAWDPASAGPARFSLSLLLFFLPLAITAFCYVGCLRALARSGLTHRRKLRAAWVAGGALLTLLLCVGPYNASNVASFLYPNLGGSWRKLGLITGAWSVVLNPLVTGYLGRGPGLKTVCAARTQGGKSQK
Description: IP1 accumulation measurements using the IPOne assay system—1321N1 cells stably expressing human GPR40 receptor (Euroscreen, Belgium) are seeded 24 h before the assay in white 384-well plates in culture medium containing 10% FCS, 1% Na-Pyruvate and 400 μg/mL G418. IP1 is assayed according to the manufacturer's description (Cisbio Bioassays, France). In brief, the assay is started by substitution of the culture medium by stimulation buffer (Hepes 10 mM, CaCl2 1 mM, MgCl2 0.5 mM, KCl 4.2 mM, NaCl 146 mM, glucose 5.5 mM and LiCl 50 mM, pH 7.4). Cells are stimulated for 1 h at 37° C., 5% CO2 by addition of the compounds that are diluted in stimulation buffer containing LiCl. Assays are stopped by adding HTRF-conjugates (IP1-d2 and Anti-IP1 cryptate Tb) and lysis buffer, provided by the manufacturer. After an incubation time of 1 h at room temperature plates are measured using an EnVision™, Perkin Elmer. The obtained fluorescence ratios at 665/615 […] are then used to calculate the pEC50 values using Assay Explorer 3.3 Software (Accelrys, Inc.) by interpolation using an IP1 reference curve and subsequent sigmoidal curve fitting allowing for a variable hill slope.

[1] = Aqueous solubility (buffer vs acetonitrile/water, LC-UV); assay type: physicochemical; conditions: for solubility at 24 h: aqueous buffer, kinetic from dmso stock, pH 2.2 buffer, 24 h shaking, 2.5% DMSO; for Solubility at pH value 2.2: pH 2.2
Description: The aqueous solubility of the compounds of the invention is determined by comparing the amount dissolved in buffer to the amount in an acetonitrile/water (1/1) solution. Starting from a 10 mM DMSO stock solution aliquots are diluted with acetonitrile/water (1/1) or buffer, respectively. After 24 h of shaking, the solutions are filtrated and analyzed by LC-UV. The amount dissolved in buffer is compared to the amount in the acetonitrile solution.

[2] = reference examples of WO 2013/178575

Structure (SMILES): Cc1cc(OCCCS(C)(=O)=O)cc(C)c1-c1cccc(CNc2ccc([C@H]3CC3C(=O)O)nc2)c1 (stereo partly shown) [Example 1]
- EC50 (human GPR40 receptor): 50 nM
- solubility at 24 h ([1]; examples in this invention): 83 µg/mL (≈ 163 µM)

Structure (SMILES): CC(C)(O)CCOc1ccc(-c2cc(CNc3ccc([C@H]4C[C@@H]4C(=O)O)nc3)ccc2C(F)(F)F)cc1 [Example 2, (1S,2S)-2-(5-{[4′-(3-Hydroxy-3-methyl-butoxy)-6-trifluoromethyl-biphenyl-3-ylmethyl]-amino}-pyridin-2-yl)-cyclopropanecarboxylic acid]
- EC50 (human GPR40 receptor): 17 nM
- solubility at 24 h ([1]; examples in this invention): 72 µg/mL (≈ 140 µM)

Structure (SMILES): O=C(O)[C@H]1C[C@@H]1c1ccc(NCc2ccc(C(F)(F)F)c(-c3ccc(OCC4CC4)cc3)c2)cn1 [Example 3, (1S,2S)-2-{5-[(4′-Cyclopropylmethoxy-6-trifluoromethyl-biphenyl-3-ylmethyl)-amino]-pyridin-2-yl}-cyclopropanecarboxylic acid]
- EC50 (human GPR40 receptor): 22 nM
- solubility at 24 h ([1]; examples in this invention): 22 µg/mL (≈ 45.6 µM)

Structure (SMILES): O=C(O)[C@H]1C[C@@H]1c1ccc(NCc2ccc(C(F)(F)F)c(-c3ccc(OC(F)(F)F)cc3)c2)cn1 [Example 4, (1S,2S)-2-{5-[(4′-Trifluoromethoxy-6-trifluoromethyl-biphenyl-3-ylmethyl)-amino]-pyridin-2-yl}-cyclopropanecarboxylic acid]
- EC50 (human GPR40 receptor): 44 nM
- solubility at 24 h ([1]; examples in this invention): 14 µg/mL (≈ 28.2 µM)

Structure (SMILES): Cc1cc(OCCC(C)(C)O)cc(C)c1-c1cc(CNc2ccc([C@H]3C[C@@H]3C(=O)O)nc2)ccc1C(F)(F)F [Example 5]
- EC50 (human GPR40 receptor): 12 nM
- solubility at 24 h ([1]; examples in this invention): < 1 µg/mL

Structure (SMILES): COc1ccc(-c2ccc(-c3cc(CNc4ccc([C@H]5C[C@@H]5C(=O)O)nc4)c(F)cc3F)cc2)nn1 [Example 6, (1S,2S)-2-(5-{[4,6-Difluoro-4′-(6-methoxy-pyridazin-3-yl)-biphenyl-3-ylmethyl]-amino}-pyridin-2-yl)-cyclopropanecarboxylic acid]
- EC50 (human GPR40 receptor): 64 nM
- solubility at 24 h ([1]; examples in this invention): 56 µg/mL (≈ 115 µM)

Structure (SMILES): COc1ccc(-c2ccc(-c3cc(CNc4ccc([C@H]5C[C@@H]5C(=O)O)nc4)c(F)cc3F)cc2)nc1 [Example 7, (1S,2S)-2-(5-{[4,6-Difluoro-4′-(5-methoxy-pyridin-2-yl)-biphenyl-3-ylmethyl]-amino}-pyridin-2-yl)-cyclopropanecarboxylic acid]
- EC50 (human GPR40 receptor): 27 nM
- solubility at 24 h ([1]; examples in this invention): 77 µg/mL (≈ 158 µM)

Structure (SMILES): Cc1cc(N)ccc1-c1cc(CNc2ccc([C@H]3C[C@@H]3C(=O)O)nc2)c(F)cc1F [Example 8, (1S,2S)-2-{5-[(4′-Amino-4,6-difluoro-2′-methyl-biphenyl-3-ylmethyl)-amino]-pyridin-2-yl}-cyclopropanecarboxylic acid]
- EC50 (human GPR40 receptor): 127 nM
- solubility at 24 h ([1]; examples in this invention): > 96 µg/mL

Structure (SMILES): O=C(O)[C@H]1C[C@@H]1c1ccc(NCc2cc(-c3ccc(O)c(Cl)c3)c(F)cc2F)cn1 [Example 9, (1S,2S)-2-{5-[(3′-Chloro-4,6-difluoro-4′-hydroxy-biphenyl-3-ylmethyl)-amino]-pyridin-2-yl}-cyclopropanecarboxylic acid]
- EC50 (human GPR40 receptor): 943 nM
- solubility at 24 h ([1]; examples in this invention): 58 µg/mL (≈ 135 µM)

Structure (SMILES): COc1c(F)cc(-c2cc(CNc3ccc([C@H]4C[C@@H]4C(=O)O)nc3)c(F)cc2F)cc1F [Example 10, (1S,2S)-2-{5-[(4,6,3′,5′-Tetrafluoro-4′-methoxy-biphenyl-3-ylmethyl)-amino]-pyridin-2-yl}-cyclopropanecarboxylic acid]
- EC50 (human GPR40 receptor): 52 nM
- solubility at 24 h ([1]; examples in this invention): 61 µg/mL (≈ 137 µM)

Structure (SMILES): Cc1cc(-c2nnn(C)n2)cc(C)c1-c1ccc(F)c(CNc2ccc([C@H]3C[C@@H]3C(=O)O)nc2)c1 [Example 11]
- EC50 (human GPR40 receptor): 8 nM
- Solubility at pH value 2.2 [1]: 56 μg/mL

Structure (SMILES): Cc1cc(OCc2ccccc2)cc(C)c1-c1ccc(F)c(CNc2ccc([C@H]3C[C@@H]3C(=O)O)nc2)c1 [Example 12]
- EC50 (human GPR40 receptor): 44 nM
- Solubility at pH value 2.2 [1]: 27 μg/mL

Structure (SMILES): Cc1cc(OCC(C)(C)C#N)cc(C)c1-c1ccc(F)c(CNc2ccc([C@H]3C[C@@H]3C(=O)O)nc2)c1 [Example 13]
- EC50 (human GPR40 receptor): 59 nM
- Solubility at pH value 2.2 [1]: 49 μg/mL

Structure (SMILES): Cc1cc(OCC(=O)O)cc(C)c1-c1ccc(F)c(CNc2ccc([C@H]3C[C@@H]3C(=O)O)nc2)c1 [Example 14]
- EC50 (human GPR40 receptor): 4520 nM
- Solubility at pH value 2.2 [1]: 71 μg/mL

Structure (SMILES): Cc1cc(-c2ccn(C)c(=O)c2)cc(C)c1-c1ccc(F)c(CNc2ccc([C@H]3C[C@@H]3C(=O)O)nc2)c1 [Example 16]
- EC50 (human GPR40 receptor): 29 nM
- Solubility at pH value 2.2 [1]: 79 μg/mL

Structure (SMILES): Cc1cc(-c2ccn(C)c(=O)c2)cc(C)c1-c1ccc(F)c(CNc2ccc([C@H]3C[C@@H]3C(=O)O)nc2)c1 [Example 17]
- EC50 (human GPR40 receptor): 18 nM
- Solubility at pH value 2.2 [1]: 73 μg/mL

Structure (SMILES): Cc1cc(-c2cc(=O)n(C)cn2)cc(C)c1-c1ccc(F)c(CNc2ccc([C@H]3C[C@@H]3C(=O)O)nc2)c1 [Example 18]
- EC50 (human GPR40 receptor): 23 nM
- Solubility at pH value 2.2 [1]: 72 μg/mL

Structure (SMILES): Cc1cc(OCCC(C)(C)O)cc(C)c1-c1ccc(F)c(CNc2ccc([C@H]3C[C@@H]3C(=O)O)nc2)c1 [Example 19]
- EC50 (human GPR40 receptor): 27 nM
- Solubility at pH value 2.2 [1]: 81 μg/mL

Structure (SMILES): Cc1cc(OC2CCOCC2)cc(C)c1-c1ccc(F)c(CNc2ccc([C@H]3C[C@@H]3C(=O)O)nc2)c1 [Example 20]
- EC50 (human GPR40 receptor): 35 nM
- Solubility at pH value 2.2 [1]: 66 μg/mL

Structure (SMILES): Cc1cc(OCC(C)(C)O)cc(C)c1-c1ccc(F)c(CNc2ccc([C@H]3C[C@@H]3C(=O)O)nc2)c1 [Example 21]
- EC50 (human GPR40 receptor): 101 nM
- Solubility at pH value 2.2 [1]: 82 μg/mL

Structure (SMILES): Cc1cc(CO)cc(C)c1-c1ccc(F)c(CNc2ccc([C@H]3C[C@@H]3C(=O)O)nc2)c1 [Example 22]
- EC50 (human GPR40 receptor): 206 nM
- Solubility at pH value 2.2 [1]: 48 μg/mL

Structure (SMILES): O=C(O)[C@H]1C[C@@H]1c1ccc(NCc2cc(-c3c(F)cc(F)cc3F)ccc2F)cn1 [Example 23]
- EC50 (human GPR40 receptor): 505 nM
- Solubility at pH value 2.2 [1]: 53 μg/mL

Structure (SMILES): Cc1cc(O[C@@H]2CCOC2)cc(C)c1-c1ccc(F)c(CNc2ccc([C@H]3C[C@@H]3C(=O)O)nc2)c1 [Example 24]
- EC50 (human GPR40 receptor): 44 nM
- Solubility at pH value 2.2 [1]: 64 μg/mL

Structure (SMILES): Cc1cc(O[C@H]2CCOC2)cc(C)c1-c1ccc(F)c(CNc2ccc([C@H]3C[C@@H]3C(=O)O)nc2)c1 [Example 25]
- EC50 (human GPR40 receptor): 28 nM
- Solubility at pH value 2.2 [1]: 69 μg/mL

Structure (SMILES): Cc1cc(OCC2CCOC2)cc(C)c1-c1ccc(F)c(CNc2ccc([C@H]3C[C@@H]3C(=O)O)nc2)c1 (stereo partly shown) [Example 26]
- EC50 (human GPR40 receptor): 39 nM
- Solubility at pH value 2.2 [1]: 70 μg/mL

Structure (SMILES): Cc1cc(C(N)=O)cc(C)c1-c1ccc(F)c(CNc2ccc([C@H]3C[C@@H]3C(=O)O)nc2)c1 [Example 27]
- EC50 (human GPR40 receptor): 401 nM
- Solubility at pH value 2.2 [1]: 62 μg/mL

Structure (SMILES): COc1cc(OC)c(Cl)c(-c2ccc(F)c(CNc3ccc([C@H]4C[C@@H]4C(=O)O)nc3)c2)c1Cl [Example 28]
- EC50 (human GPR40 receptor): 30 nM
- Solubility at pH value 2.2 [1]: 18 μg/mL

Structure (SMILES): Cc1cc(C(=O)NCC(C)(C)O)cc(C)c1-c1ccc(F)c2c1CC[C@H]2Oc1ccc([C@H]2C[C@@H]2C(=O)O)cc1 [WO 2013/178575 Example 15, reference compound]
- solubility at 24 h [1, 2]: < 1 µg/mL

Structure (SMILES): Cc1cc(OCCC(C)(C)O)cc(C)c1-c1ccc(F)c2c1CC[C@H]2Oc1ccc([C@H]2C[C@@H]2C(=O)O)cc1 [WO 2013/178575 Example 17, reference compound]
- solubility at 24 h [1, 2]: < 1 µg/mL

Structure (SMILES): Cc1cc(-c2nnn(C)n2)cc(C)c1-c1ccc(F)c2c1CC[C@H]2Oc1ccc([C@H]2C[C@@H]2C(=O)O)cc1 [WO 2013/178575 Example 45, reference compound]
- solubility at 24 h [1, 2]: < 1 µg/mL

Structure (SMILES): Cc1c(C#N)cccc1-c1ccc(F)c2c1CC[C@H]2Oc1ccc([C@H]2C[C@@H]2C(=O)O)cc1 [WO 2013/178575 Example 54, reference compound]
- solubility at 24 h [1, 2]: < 1 µg/mL
